This test has as its system HIV wild type (WTRVA). Put plainly: HeLa cell assay, wild type virus (WTRVA). It is filed as cell-based, HIV-1. More on the design: scale not given here.
[1] abbreviates: Human immunodeficiency virus 1, HeLa, HeLa-CD4-LTR-β-gal cells, wild type virus, read-out: WTRVA activity level.
[2] abbreviates: Human immunodeficiency virus 1, HeLa, HeLa cell assay, read-out: IC50 against WTRVA.

Where a name gives a salt, the structure may show the parent alone. Read-outs that look alike come from different tables or passages of the source.

With `CN(Cc1ccc(Cl)c(Oc2cc(Cl)cc(C#N)c2)c1F)C(=O)c1[nH]cnc1Cl` [Example 132, 4-chloro-N-({4-chloro-3-[(3-chloro-5-cyanophenyl)oxy]-2-fluorophenyl}methyl)-N-methyl-1′-imidazole-5-carboxamide trifluoroacetate], the IC50 under setting [1] is less than 10 nM. Still for that read-out and setting: for `CC(=O)c1ccc2cc(C(=O)NCc3ccc(Cl)c(Oc4cc(Cl)cc(C#N)c4)c3F)[nH]c2c1` [Example 78, 6-acetyl-N-({4-chloro-3-[(3-chloro-5-cyanophenyl)oxy]-2-fluorophenyl}methyl)-1H-indole-2-carboxamide trifluoroacetate] the value was less than 10 nM. For the compound `N#Cc1cc(Cl)cc(Oc2c(Cl)ccc(CNC(=O)c3[nH]c4ccccc4c3Br)c2F)c1` [Example 54, 3-bromo-N-({4-chloro-3-[(3-chloro-5-cyanophenyl)oxy]-2-fluorophenyl}methyl)-1H-indole-2-carboxamide trifluoroacetate], the IC50 (HeLa-CD4-LTR-β-gal cells, wild type virus, trifluoroacetate, read-out: WTRVA activity level) is less than 10 nM. With `COc1ccc2[nH]c(C(=O)NCc3ccc(Cl)c(Oc4cc(Cl)cc(C#N)c4)c3F)c(NC(C)=O)c2c1` [Example 56, 3-(acetylamino)-N-({4-chloro-3-[(3-chloro-5-cyanophenyl)oxy]-2-fluorophenyl}methyl)-5-(methyloxy)-1H-indole-2-carboxamide trifluoroacetate], the IC50 under setting [1] was 10 to 1000 nM.

With `Cc1nc(Br)c(C(=O)NCc2ccc(Br)c(Oc3cc(Cl)cc(C#N)c3)c2F)[nH]1` [Example 233, 4-bromo-N-({4-bromo-3-[(3-chloro-5-cyanophenyl)oxy]-2-fluorophenyl}methyl)-2-methyl-1H-imidazole-5-carboxamide], the IC50 under setting [2] was less than 10 nM. Still for that read-out and setting: for `C=C(C)c1cc(C#N)cc(Oc2c(Cl)ccc(CNC(=O)c3[nH]cnc3Cl)c2F)c1` [Example 158, 4-chloro-N-[(4-chloro-3-{[3-cyano-5-(1-methylethenyl)phenyl]oxy}-2-fluorophenyl)methyl]-1H-imidazole-5-carboxamide] the value was less than 10 nM. For the compound `CS(=O)(=O)c1cc(F)cc2cc(C(=O)NCc3ccc(Cl)c(Oc4cc(Cl)cc(C#N)c4)c3F)[nH]c12` [Example 33, N-({4-chloro-3-[(3-chloro-5-cyanophenyl)oxy]-2-fluorophenyl}methyl)-5-fluoro-7-(methylsulfonyl)-1H-indole-2-carboxamide], the IC50 under setting [1] is 10 to 1000 nM. Turning to `CCc1cc(Cl)cc(Oc2c(Cl)ccc(CNC(=O)c3[nH]cnc3Cl)c2F)c1` [Example 290, 4-chloro-N-({4-chloro-3-[(3-chloro-5-ethylphenyl)oxy]-2-fluorophenyl}methyl)-1H-imidazole-5-carboxamide], the IC50 under setting [2] was less than 10 nM. Same read-out and setting: the figure for `N#Cc1cc(Cl)cc(Oc2c(C(F)F)ccc(CNC(=O)c3[nH]c(N)nc3Cl)c2F)c1` [Example 253, 2-amino-4-chloro-N-{[3-[(3-chloro-5-cyanophenyl)oxy]-4-(difluoromethyl)-2-fluorophenyl]methyl}-1H-imidazole-5-carboxamide] is less than 10 nM. For `Cn1ccnc1C(=O)NCc1ccc(Cl)c(Oc2cc(Cl)cc(C#N)c2)c1F` [Example 72, N-({4-chloro-3-[(3-chloro-5-cyanophenyl)oxy]-2-fluorophenyl}methyl)-1-methyl-1H-imidazole-2-carboxamide trifluoroacetate], under setting [1], the IC50 lay within 10 to 1000 nM.

As for `N#Cc1cc(Cl)cc(Oc2c(Cl)ccc(CNC(=O)c3cc4cc(N(CC5CC5)CC5CC5)ccc4[nH]3)c2F)c1` [Example 127, 5-[bis(cyclopropylmethyl)amino]-N-({4-chloro-3-[(3-chloro-5-cyanophenyl)oxy]-2-fluorophenyl}methyl)-1H-indole-2-carboxamide], under setting [1], the IC50 lay within 10 to 1000 nM. Same read-out and setting: for `Cc1cccc2cc(C(=O)NCc3ccc(Cl)c(Oc4cc(Cl)cc(C#N)c4)c3F)[nH]c12` [Example 108, N-({4-chloro-3-[(3-chloro-5-cyanophenyl)oxy]-2-fluorophenyl}methyl)-7-methyl-1H-indole-2-carboxamide] the value was 10 to 1000 nM. As to `CCc1cc(C#N)cc(Oc2c(Cl)ccc(CNC(=O)c3[nH]c(C)nc3Br)c2F)c1` [Example 149, 4-bromo-N-({4-chloro-3-[(3-cyano-5-ethylphenyl)oxy]-2-fluorophenyl}methyl)-2-methyl-1H-imidazole-5-carboxamide], the IC50 under setting [2] was less than 10 nM. Same read-out and setting: the figure for `N#Cc1cc(Cl)cc(Oc2c(Cl)ccc(CNC(=O)c3[nH]c(N)nc3Cl)c2F)c1` [Example 230, 2-amino-4-chloro-N-({4-chloro-3-[(3-chloro-5-cyanophenyl)oxy]-2-fluorophenyl}methyl)-1H-imidazole-5-carboxamide trifluoroacetate] is less than 10 nM.

On to `N#Cc1cc(Cl)cc(Oc2c(Cl)ccc(CNC(=O)c3ccncc3)c2F)c1` [Example 89, N-({4-chloro-3-[(3-chloro-5-cyanophenyl)oxy]-2-fluorophenyl}methyl)-4-pyridinecarboxamide trifluoroacetate], for which the IC50 under setting [1] is 10 to 1000 nM. Same read-out and setting: for `Cn1cncc1C(=O)NCc1ccc(Cl)c(Oc2cc(Cl)cc(C#N)c2)c1F` [Example 67, N-({4-chloro-3-[(3-chloro-5-cyanophenyl)oxy]-2-fluorophenyl}methyl)-1-methyl-1H-imidazole-5-carboxamide trifluoroacetate] the value was 10 to 1000 nM. Same read-out and setting: for `N#Cc1cc(Cl)cc(Oc2c(Cl)ccc(CNC(=O)c3cc4cccc(O)c4[nH]3)c2F)c1` [Example 32, N-({4-chloro-3-[(3-chloro-5-cyanophenyl)oxy]-2-fluorophenyl}methyl)-7-hydroxy-1H-indole-2-carboxamide] the value was 10 to 1000 nM; for `N#Cc1cc(Cl)cc(Oc2c(Cl)ccc(CNC(=O)c3[nH]c4cc(OCCO)ccc4c3Br)c2F)c1` [Example 141, 3-Bromo-N-({4-chloro-3-[(3-chloro-5-cyanophenyl)oxy]-2-fluorophenyl}methyl)-6-[(2-hydroxyethyl)oxy]-1H-indole-2-carboxamide], less than 10 nM; for `CC(=O)c1ccc2[nH]c(C(=O)NCc3ccc(Cl)c(Oc4cc(Cl)cc(C#N)c4)c3F)cc2c1` [Example 80, 5-acetyl-N-({4-chloro-3-[(3-chloro-5-cyanophenyl)oxy]-2-fluorophenyl}methyl)-1H-indole-2-carboxamide trifluoroacetate], less than 10 nM. Take `N#Cc1cc(Cl)cc(Oc2c(Cl)ccc(Cn3cnc4cc[nH]c4c3=O)c2F)c1` [Example 369, 3-chloro-5-({6-chloro-2-fluoro-3-[(4-oxo-4,5-dihydro-3H-pyrrolo[3,2-d]pyrimidin-3-yl)methyl]phenyl}oxy)benzonitrile]: the IC50 under setting [2] is less than 10 nM. Take `C=Cc1cc(C#N)cc(Oc2c(Cl)ccc(CNC(=O)c3[nH]c(C)nc3Cl)c2F)n1` [Example 272, 4-Chloro-N-({4-chloro-3-[(4-cyano-6-ethenyl-2-pyridinyl)oxy]-2-fluorophenyl}methyl)-2-methyl-1H-imidazole-5-carboxamide]: the IC50 under setting [2] was less than 10 nM. Take `N#Cc1cc(Cl)cc(Oc2c(Cl)ccc(CNC(=O)c3c[nH]cn3)c2F)c1` [Example 84, N-({4-chloro-3-[(3-chloro-5-cyanophenyl)oxy]-2-fluorophenyl}methyl)-1H-imidazole-4-carboxamide trifluoroacetate]: under setting [1], the IC50 is less than 10 nM. Still for that read-out and setting: for `Cn1c(C(=O)NCc2ccc(Cl)c(Oc3cc(Cl)cc(C#N)c3)c2F)cc2ccccc21` [Example 45, N-({4-chloro-3-[(3-chloro-5-cyanophenyl)oxy]-2-fluorophenyl}methyl)-1-methyl-1H-indole-2-carboxamide] the value was 10 to 1000 nM. As to `CCc1cc(C#N)cc(Oc2c(Cl)ccc(CNC(=O)c3[nH]cnc3Cl)c2F)c1` [Example 148, 4-chloro-N-({4-chloro-3-[(3-cyano-5-ethylphenyl)oxy]-2-fluorophenyl}methyl)-1H-imidazole-5-carboxamide], under setting [2], the IC50 is less than 10 nM. `Cc1nc(Cl)c(C(=O)NCc2ccc(Cl)c(Oc3cc(Cl)cc(C#N)c3)c2F)[nH]1` [Example 137, 4-chloro-N-({4-chloro-3-[(3-chloro-5-cyanophenyl)oxy]-2-fluorophenyl}methyl)-2-methyl-1H-imidazole-5-carboxamide]: the IC50 under setting [1] was less than 10 nM.

As for `N#Cc1cc(Oc2c(Cl)ccc(CNC(=O)c3[nH]cnc3Cl)c2F)cc(C(F)F)c1` [Example 309, 4-chloro-N-[(4-chloro-3-{[3-cyano-5-(difluoromethyl)phenyl]oxy}-2-fluorophenyl)methyl]-1H-imidazole-5-carboxamide], the IC50 under setting [2] was less than 10 nM. For `N#Cc1cc(Cl)cc(Oc2c(Cl)ccc(CNC(=O)c3cc4cc(NC(=O)c5cccnc5)ccc4[nH]3)c2F)c1` [Example 115, N-({4-chloro-3-[(3-chloro-5-cyanophenyl)oxy]-2-fluorophenyl}methyl)-5-[(3-pyridinylcarbonyl)amino]-1H-indole-2-carboxamide], the IC50 under setting [1] is less than 10 nM. Still for that read-out and setting: for `N#Cc1cc(Cl)cc(Oc2c(Cl)ccc(CNC(=O)c3cc4cc([N+](=O)[O-])ccc4[nH]3)c2F)c1` [Example 19, N-({4-chloro-3-[(3-chloro-5-cyanophenyl)oxy]-2-fluorophenyl}methyl)-5-nitro-1H-indole-2-carboxamide] the value was less than 10 nM; for `N#Cc1cc(Cl)cc(Oc2c(Cl)ccc(CNC(=O)c3cc4cc(OCCN5CCOCC5)ccc4[nH]3)c2F)c1` [Example 103, N-({4-chloro-3-[(3-chloro-5-cyanophenyl)oxy]-2-fluorophenyl}methyl)-5-{[2-(4-morpholinyl)ethyl]oxy}-1H-indole-2-carboxamide], less than 10 nM.

Consider `Cc1nc(Cl)c(C(=O)NCc2ccc(Cl)c(Oc3cc(C#N)cc(C4CC4)c3)c2F)[nH]1` [Example 308, 4-chloro-N-({4-chloro-3-[(3-cyano-5-cyclopropylphenyl)oxy]-2-fluorophenyl}methyl)-2-methyl-1H-imidazole-5-carboxamide trifluoroacetate], for which the IC50 under setting [2] is less than 10 nM. With `Cc1c(C(=O)NCc2ccc(Cl)c(Oc3cc(Cl)cc(C#N)c3)c2F)[nH]c2ccc(Cl)cc12` [Example 40, 5-chloro-N-({4-chloro-3-[(3-chloro-5-cyanophenyl)oxy]-2-fluorophenyl}methyl)-3-methyl-1H-indole-2-carboxamide], the IC50 under setting [1] is 10 to 1000 nM.

Values taken from patent US8304419B2, “Chemical compounds” (priority 2007, dated 2012).
